Reference: publication PMC7994753, “The Availability of the α7-Nicotinic Acetylcholine Receptor in Early Identification of Vulnerable Atherosclerotic Plaques: A Study Using a Novel ^18F-Label Radioligand PET” (Frontiers in Bioengineering and Biotechnology, 2021)

Key:
[1] = molecular target: T1, α7nAChR in atherosclerotic plaques (Mus musculus, UniProt P49582); assay: Micro-PET/CT imaging of carotid atherosclerotic plaques; format: in vivo, ApoE-/-mice and normal mice
T1 construct: superimposed on the high uptake region in carotid arteries of ApoE-/-mice; from tissue; host or cells: carotid arteries / atherosclerotic plaques of living ApoE-/- mice and normal mice
Excerpt: ApoE-/-mice (n = 6, weight 25–33 g) and normal mice (n = 6, weight 25–33g) were purchased from Qingzilan Technology Co., Ltd (Nanjing, China). After 1 week of feeding with common feed, the selected ApoE-/-mice were fed with western diet, containing 21% fat and 0.15% cholesterol content, with a high-fat/high-cholesterol content for 9–10 weeks and subjected to micro-PET/CT imaging. The tissues were used for red staining and immunohistochemistry experiments. The normal mice served as controls for micro-PET/CT imaging and their tissues for immunohistochemistry. All mice were kept in a temperature-controlled environment with a 12 h light/dark cycle with free access to food and water. Animal care and experimental procedures were conducted in compliance with the Helsinki Declaration and approved by Fuwai hospital animal care committee.
When the animal models were 10 and 11 weeks old, the micro-PET/CT imaging were conducted. An Inveon small animal PET/CT scanner (Siemens,Germany) was used to perform the scans. A total volume of 5.56 MBq (150 μCi) of [^18F]YLF-DW was injected into six ApoE-/-mice and six normal mice by the tail veins, and the animal models were anesthetized with 2% isoflurane through inhalation. We performed PET/CT dynamic scanning. After screening, the acquisition was performed at 1 h after tail vein injections. The micro-PET/CT was initially performed with the following parameters: energy peak, 511 keV; window width, 3.5 E0 SUV-bw; resolution, 0.775 mm/pixel; and matrix, 128 × 128. Each mouse required a 15-min acquisition and the computed tomography (CT) was performed after PET scanning in the same bed position using the following parameters: frame resolution, 256 × 512; tube voltage, 80 kVp; current, 0.5 mA; and exposure time, 500 ms/frame.
The images were reconstructed by two-dimensional-ordered subsets expectation maximization. The three-dimensional regions of interest (ROIs) were superimposed on the high uptake region in carotid arteries of ApoE-/-mice. The tissue density was presumed as 1 g/ml, and % ID/g was calculated based on the dose injected into the mice.

α4β2nAChR = molecular target: T2, α4β2nAChR (Mus musculus, UniProt O70174+Q9ERK7); assay: Blocking experiment with cytisine pre-injection, brain uptake; format: in vivo; conditions: cytisine 1 mg/kg pre-injected 5 min before tracer; CD-1 mice brain, 60 min after injection
T2 construct: from tissue; host or cells: brain of living CD-1 mice
Experimental: (§1) To further determine the specific binding of [^18F]YLF-DW to α7nAChR over other similar receptors, blocking experiments were carried out by pre-subcutaneous injection of blocking agents. α4β2nAChR, a heteromeric nAChR subtype widely expressed and 5-HT3, a receptor sharing high sequence homology with α7nAChR, were the most likely receptors to cross binding with α7nAChR ligands. We used the brain tissues of CD-1 mice to do the blocking experiment. Cytisine (1 mg/kg, a selective partial agonist of α4β2nAChR) and ondansetron (2 mg/kg, a selective antagonist of 5-HT3) were pre-injected 5 and 10 min prior to the intravenous injection of [^18F]YLF-DW, respectively. The CD-1 mice were sacrificed at 60 min after the [^18F]YLF-DW injection, and the brain tissues were harvested.

α7nAChR = molecular target: α7nAChR; design: method as in Wang S. et al., 2018; conditions: previous experiment, ref Wang S. et al., 2018; cited from earlier work
[2] = design: method as in Wang S. et al., 2018; conditions: ref Wang S. et al., 2018, cited from earlier work
5-HT3 = molecular target: T3, 5-HT3 (Mus musculus, UniProt P23979); assay: Blocking experiment with ondansetron pre-injection, brain uptake; format: in vivo; conditions: ondansetron 2 mg/kg pre-injected 10 min before tracer; CD-1 mice brain, 60 min after injection
T3 construct: from tissue; host or cells: brain of living CD-1 mice
T3 sequence (P23979 24-489): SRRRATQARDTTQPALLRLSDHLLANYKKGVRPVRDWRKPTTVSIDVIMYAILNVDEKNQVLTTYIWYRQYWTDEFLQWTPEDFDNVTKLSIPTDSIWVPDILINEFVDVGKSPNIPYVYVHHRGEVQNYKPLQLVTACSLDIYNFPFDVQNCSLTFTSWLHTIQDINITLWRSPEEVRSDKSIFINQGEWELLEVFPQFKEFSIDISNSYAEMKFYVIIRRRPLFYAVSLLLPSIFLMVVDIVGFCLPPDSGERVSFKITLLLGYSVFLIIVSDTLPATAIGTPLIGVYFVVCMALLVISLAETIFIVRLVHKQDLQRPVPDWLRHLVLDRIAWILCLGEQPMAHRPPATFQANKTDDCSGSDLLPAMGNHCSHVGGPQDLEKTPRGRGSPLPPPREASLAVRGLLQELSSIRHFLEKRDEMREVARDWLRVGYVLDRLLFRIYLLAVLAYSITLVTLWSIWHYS
Experimental: as §1

T1 sequence (P49582 23-502): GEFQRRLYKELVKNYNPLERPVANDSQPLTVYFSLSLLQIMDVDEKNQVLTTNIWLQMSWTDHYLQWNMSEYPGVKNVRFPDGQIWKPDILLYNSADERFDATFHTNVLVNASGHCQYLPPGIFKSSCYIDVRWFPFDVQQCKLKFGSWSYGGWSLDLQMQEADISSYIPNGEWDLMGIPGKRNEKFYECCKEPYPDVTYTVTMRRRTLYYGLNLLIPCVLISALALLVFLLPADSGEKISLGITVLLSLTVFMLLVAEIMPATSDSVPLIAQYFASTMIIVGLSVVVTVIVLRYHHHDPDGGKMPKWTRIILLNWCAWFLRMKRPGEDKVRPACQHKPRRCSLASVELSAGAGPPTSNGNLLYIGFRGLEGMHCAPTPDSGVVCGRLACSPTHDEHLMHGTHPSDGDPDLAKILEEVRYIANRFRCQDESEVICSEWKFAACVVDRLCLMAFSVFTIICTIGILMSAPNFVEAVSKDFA
T2 sequence (O70174 31-629): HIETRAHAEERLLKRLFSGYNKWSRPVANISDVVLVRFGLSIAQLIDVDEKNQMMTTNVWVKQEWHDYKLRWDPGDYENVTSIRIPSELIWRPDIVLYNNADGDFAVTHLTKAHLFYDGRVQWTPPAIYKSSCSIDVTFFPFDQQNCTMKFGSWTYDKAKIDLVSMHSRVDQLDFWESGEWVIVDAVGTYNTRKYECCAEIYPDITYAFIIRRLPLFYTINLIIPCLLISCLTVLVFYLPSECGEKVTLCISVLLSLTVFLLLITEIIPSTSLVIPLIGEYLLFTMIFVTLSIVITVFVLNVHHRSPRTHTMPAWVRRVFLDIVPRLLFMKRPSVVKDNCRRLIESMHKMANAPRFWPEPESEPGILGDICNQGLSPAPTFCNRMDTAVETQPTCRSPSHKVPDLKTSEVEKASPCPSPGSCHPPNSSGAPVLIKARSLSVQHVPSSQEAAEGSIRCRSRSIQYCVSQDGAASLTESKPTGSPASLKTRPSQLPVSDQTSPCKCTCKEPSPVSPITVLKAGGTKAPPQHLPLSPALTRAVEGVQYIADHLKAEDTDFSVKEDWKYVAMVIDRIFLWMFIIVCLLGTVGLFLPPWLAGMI
T2 sequence (Q9ERK7 26-501): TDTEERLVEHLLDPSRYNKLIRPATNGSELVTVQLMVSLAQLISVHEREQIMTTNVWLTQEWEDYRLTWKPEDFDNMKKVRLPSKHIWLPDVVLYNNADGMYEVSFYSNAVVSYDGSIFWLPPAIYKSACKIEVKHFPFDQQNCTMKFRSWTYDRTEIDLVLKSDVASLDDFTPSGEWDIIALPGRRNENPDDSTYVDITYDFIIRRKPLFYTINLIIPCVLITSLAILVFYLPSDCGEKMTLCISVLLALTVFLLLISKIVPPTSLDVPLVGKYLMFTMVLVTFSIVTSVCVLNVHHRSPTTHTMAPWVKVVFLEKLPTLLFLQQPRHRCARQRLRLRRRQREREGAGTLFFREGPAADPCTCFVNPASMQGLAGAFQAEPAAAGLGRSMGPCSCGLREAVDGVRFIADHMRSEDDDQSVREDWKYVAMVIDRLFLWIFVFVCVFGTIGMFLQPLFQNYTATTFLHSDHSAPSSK

O=C1c2cc(N3CCN4CCC3CC4)ccc2-c2cccc([18F])c21 [[^18F]YLF-DW]
carotid artery plaque imaging signal ([1]; ApoE-/-mouse, 5.56 MBq i.v., acquisition 1 h after injection): obvious in the carotid artery
early detection of carotid plaques compared with traditional imaging agent ([1]; ApoE-/-mouse, comparison with [^18F]FDG): better than [^18F]FDG
carotid artery imaging signal ([1]; normal control mice, 5.56 MBq i.v., acquisition 1 h after injection): no signal was observed
difference in radioligand uptake, blocked group vs control group (α4β2nAChR): no significant difference
Ki (α7nAChR): 2.98 ± 1.41 nM
initial brain uptake ([2]; 15 min post-injection, Kunming mouse): 11.60 ± 0.14 %ID/g
brain/blood value ([2]; 30 min post-injection, Kunming mouse): 9.57
clearance from brain ([2]; Kunming mouse brains): fast clearance
difference in radioligand uptake, blocked group vs control group (5-HT3): no significant difference
